Reference: paper PMC8205225, “Structural Basis of Metallo-β-lactamase Inhibition by N-Sulfamoylpyrrole-2-carboxylates” (ACS Infectious Diseases, 2021)
Where two headings read alike, the source gives them in different places.

What was measured:
[1] = target: T1, IMP-1 (Serratia marcescens, UniProt P52699); assay: fluorogenic cephalosporin FC5 MBL inhibition assay, IMP-1; format: biochemical; details: FC5 5 μM, enzyme 20 pM, quadruplicate; read-out: pIC50 IMP-1 (converted)
T1 construct: made in house
T1 sequence (P52699 19-246, looked up, species assumed): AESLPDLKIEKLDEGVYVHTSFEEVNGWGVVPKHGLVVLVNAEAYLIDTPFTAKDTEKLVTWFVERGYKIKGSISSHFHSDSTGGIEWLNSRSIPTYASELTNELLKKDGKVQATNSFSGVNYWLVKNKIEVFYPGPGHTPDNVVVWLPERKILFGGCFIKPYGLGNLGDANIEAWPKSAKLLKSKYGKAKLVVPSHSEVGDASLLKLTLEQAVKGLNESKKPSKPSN
Method: (§1) The NSPCs were screened against four of the currently most clinically relevant B1 MBLs, i.e. VIM-1, VIM-2, NDM-1, and IMP-1 (Table 1), using an assay employing the “fluorogenic” cephalosporin FC5.[40]
(§2) The inhibitory activity of NSPCs 6, 8-14 against representative B1 subfamily MBLs [obtained according to previously reported production and purification procedures: VIM-1,5 VIM-2, NDM-1 and IMP-16] was determined using a fluorogenic assay monitoring the enzymatic breakdown of the cephalosporin probe FC5.6 The FC5/meropenem assays were conducted at room temperature in clear-bottomed Greiner 384 black well microplates (FC5) or Greiner 96 well UV star microplates (meropenem), using a ClarioStar or PHERAstar FS microplate reader (BMG LabTech). Representative β-lactamases were tested at the following concentrations:
(§3) VIM-1, 100 pM; NDM-1, 20 pM; IMP-1, 20 pM; and VIM-2, 500 pM. The concentration of FC5 employed was 5 μM for all enzymes. IMP-1, VIM-1, VIM-2 and NDM-1 inhibition assays were screened in “MBL buffer” (50 mM HEPES, pH 7.2, 1 μM ZnSO4, 1 μg mL−1 BSA, 0.01% v/v Triton X-100). The initial rates of reaction (measured after 10 min pre-incubation of the NSPC with the enzyme) were assessed by monitoring the fluorescence intensity at λex = 380 nm and λem = 460 nm. Following the determination of initial rates of reaction, the data were fitted using a four-parameter function: log (inhibitor) vs. response, variable slope in GraphPad Prism 6 to obtain IC50 values.6, 7

[2] = target: T2, VIM-2 (Escherichia coli, UniProt Q5U7L7); assay: fluorogenic cephalosporin FC5 MBL inhibition assay, VIM-2; format: biochemical; details: FC5 5 μM, enzyme 500 pM, quadruplicate; read-out: pIC50 VIM-2 (converted)
T2 construct: made in house
Method: as §1, §2, §3

[3] = target: T3, VIM-1 (Pseudomonas aeruginosa, UniProt A0A0F7KYQ8); assay: fluorogenic cephalosporin FC5 MBL inhibition assay, VIM-1; format: biochemical; details: FC5 5 μM, enzyme 100 pM, quadruplicate; for IC50: read-out: pIC50 VIM-1 (converted)
T3 construct: made in house
Method: as §1, §2, §3

[4] = target: T4, NDM-1 (Klebsiella pneumoniae, UniProt C7C422); assay: fluorogenic cephalosporin FC5 MBL inhibition assay, NDM-1; format: biochemical; details: for IC50: FC5 5 μM, enzyme 20 pM, quadruplicate, read-out: pIC50 NDM-1 (converted); for activity (IC50) for inhibition of NDM-1, in words: FC5 assay
T4 construct: made in house
T4 sequence (C7C422 29-270, looked up, species assumed): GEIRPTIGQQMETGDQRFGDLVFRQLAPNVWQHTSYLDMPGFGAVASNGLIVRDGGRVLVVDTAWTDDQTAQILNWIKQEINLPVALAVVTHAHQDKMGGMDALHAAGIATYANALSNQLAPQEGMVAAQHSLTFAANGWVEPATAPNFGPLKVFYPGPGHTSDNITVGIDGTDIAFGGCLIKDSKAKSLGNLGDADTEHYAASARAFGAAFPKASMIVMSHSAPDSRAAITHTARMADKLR
Method: as §1, §2, §3

[5] = target: T4, NDM-1; details: determined using 100 μM nitrocefin; cited from earlier work
[6] = target: T2, VIM-2; details: determined using 100 μM nitrocefin; cited from earlier work
[7] = target: T1, IMP-1; details: determined using 100 μM nitrocefin; cited from earlier work
[8] = target: T2, VIM-2; details: cited from earlier work
[9] = target: T3, VIM-1; details: cited from earlier work
[10] = system: E. coli IR57 blaNDM-1; parameters: method as in PMID 31454231; details: strain IR57, VNRX at 10 μg mL^–1 (printed in the [I] 8 row); cited from earlier work
[11] = system: K. pneumoniae IR43 blaNDM-1; parameters: method as in PMID 31454231; details: strain IR43, VNRX at 10 μg mL^–1 (printed in the [I] 8 row); cited from earlier work
[12] = system: K. pneumoniae B68-1 blaNDM-1; parameters: method as in PMID 31454231; details: strain B68-1, VNRX at 10 μg mL^–1 (printed in the [I] 8 row); cited from earlier work
[13] = system: E. coli S117 blaNDM-1; parameters: method as in PMID 31454231; details: strain S117, VNRX at 10 μg mL^–1 (printed in the [I] 8 row); cited from earlier work
[14] = target: T1, IMP-1; details: cited from earlier work
[15] = target: T4, NDM-1; parameters: method as in PMID 32184250; details: determined by measuring hydrolysis of imipenem; cited from earlier work
[16] = target: T1, IMP-1; parameters: method as in PMID 32184250; details: determined by measuring hydrolysis of imipenem; cited from earlier work
[17] = target: T2, VIM-2; parameters: method as in PMID 32184250; details: determined by measuring hydrolysis of imipenem; cited from earlier work

Row | Structure (SMILES) | IC50 [1] | IC50 [2] | IC50 [3] | IC50 [4] | other results
1 | NS(=O)(=O)n1ccc(-c2cn[nH]c2)c1C(=O)O [compound 10] | 0.00126 µM | 0.0158 µM | 0.0794 µM | 0.00794 µM | activity (IC50) for inhibition of NDM-1, in words [4]: nanomolar potency
2 | CS(=O)(=O)c1ccc(-c2ccn(S(N)(=O)=O)c2C(=O)O)cc1 [AMRC439] | – | – | – | – | pIC50 NDM-1 [5]: 6.4[22]; pIC50 VIM-2 [6]: 4.3[22]; pIC50 IMP-1 [7]: 6.3[22]
3 | NS(=O)(=O)n1ccc(-c2ccc(N3CCOCC3)cc2)c1C(=O)O [compound 13] | < 0.000631 µM | 0.158 µM | 0.251 µM | 0.00158 µM | activity (IC50) for inhibition of NDM-1, in words [4]: nanomolar potency
4 | NC(=O)c1ccc(-c2ccn(S(N)(=O)=O)c2C(=O)O)cc1 [compound 8] | 0.00251 µM | 0.158 µM | 0.0794 µM | 0.0126 µM | –
5 | NS(=O)(=O)n1ccc(-c2ccc(C3CCNCC3)cc2)c1C(=O)O [AMRC276] | – | – | – | – | pIC50 NDM-1 [5]: 6.8[22]; pIC50 VIM-2 [6]: 4.2[22]; pIC50 IMP-1 [7]: 7.4[22]
6 | Nc1ncc(-c2ccn(S(N)(=O)=O)c2C(=O)O)cn1 [compound 11] | 0.00631 µM | 0.0501 µM | 0.0398 µM | 0.0126 µM | –
7 | NS(=O)(=O)n1ccc(-c2ccc(=O)[nH]c2)c1C(=O)O [AMRC364] | – | – | – | – | pIC50 NDM-1 [5]: 5.6[22]; pIC50 VIM-2 [6]: 4.4[22]; pIC50 IMP-1 [7]: 5.7[22]
8 | N=C1NCC(c2ccn(S(N)(=O)=O)c2C(=O)O)CN1 (centres unmarked) [compound 12] | 0.0501 µM | 0.0126 µM | 0.00316 µM | 0.316 µM | –
9 | NCCN[C@H]1CC[C@H](CC(=O)N[C@H]2Cc3cccc(C(=O)O)c3OB2O)CC1 [taniborbactam] | – | – | – | – | pIC50 VIM-2 [8]: 8.3[41]; pIC50 VIM-1 [9]: 8.1[41]; MIC of MEM in combination with VNRX [10]: 0.5 μg mL^–1; MIC of MEM in combination with VNRX [11]: 0.25 μg mL^–1; MIC of MEM in combination with VNRX [12]: 0.5 μg mL^–1; MIC of MEM in combination with VNRX [13]: 1 μg mL^–1; pIC50 IMP-1 [14]: 5.6[41]
10 | Nc1ccc(-c2ccn(S(N)(=O)=O)c2C(=O)[O-])cn1.[Na+] [compound 9] | 0.001 µM | 0.2 µM | 0.316 µM | 0.0126 µM | pIC50 NDM-1 [5]: 6.1[22]; pIC50 VIM-2 [6]: 4.5[22]; pIC50 IMP-1 [7]: 6.4[22]
11 | Nc1nc2ccc(-c3ccn(S(N)(=O)=O)c3C(=O)O)cn2n1 [compound 14, 3-(2-Amino-[1,2,4]triazolo[1,5-a]pyridin-6-yl)-1-sulfamoyl-1H-pyrrole-2-carboxylic acid] | 0.00501 µM | 0.00631 µM | 0.0398 µM | 0.0126 µM | –
12 | CCc1c(C(=O)O)c(S(N)(=O)=O)c(CC)n1C [SPC] | – | – | – | – | pIC50 NDM-1 [15]: 6.0[21]; pIC50 IMP-1 [16]: 6.6[21]; pIC50 VIM-2 [17]: 7.7[21]

More lines, main results first:

Row | IC50 [1] | IC50 [2] | IC50 [3] | IC50 [4] | Structure (SMILES) | other results
13 | 0.000631 µM | 0.02 µM | 0.126 µM | 0.00794 µM | NS(=O)(=O)n1ccc(-c2ccc(F)cc2)c1C(=O)O [6a, 3-(4-Fluorophenyl)-1-sulfamoyl-1H-pyrrole-2-carboxylic acid] | activity (IC50) for inhibition of NDM-1, in words [4]: nanomolar potency
14 | 0.00126 µM | 0.0316 µM | – | 0.00631 µM | NS(=O)(=O)n1ccc(-c2ccc(F)cc2)c1C(=O)[O-].[Na+] [6b] | pIC50 VIM-1 [3]: 6.9; activity (IC50) for inhibition of NDM-1, in words [4]: nanomolar potency
